This note sets out measurements from patent US6761885B1, “Strain of Lactobacillus plantarum and uses thereof” (SCA Hygiene Products AB, priority 1998, dated 2004).

The subject of experiment [1] is LB931. As to the kind of experiment: Sensitivity to antibiotic substances by the SIR system. The class given is cell-based, Lactobacillus plantarum. More on the design: key to Indication: S means sensitive; R strands for resistant. The settings on record: for Indication / Zone: SIR system. How it is done: The sensitivity to antibiotic substances was also determined using the SIR system. In table VI below S means sensitive and R strands for resistant.

In experiment [2] the test system is Lactobacillus plantarum LB931. As to the kind of experiment: MIC of antibiotics by E-test. It counts as cell-based. Here is the method: MIC values of Lactobacillus plantarum LB931 were determined using E-test (Brown et al. J Antimicrob Chemother 1991;27:185-190).
Experiment [3] has as its system LB931. Nature of the experiment: MIC test for the spermacidal agent Tergitol NP-9. It counts as cell-based, Lactobacillus plantarum. The settings on record: for Cfu/ml LB931: 18 h, 37 °C, inoculated 1.0×10^7 cfu. Here is the method: MIC tests were also carried out for the spermacidal agent Tergitol. LB931 was grown on MRS agar in 5% CO2, 37° C. for 48 h. The bacteria were inoculated in 3 ml MRS broth and incubated for 10 h under the same conditions as previously 1.5% of the culture was reinoculated to 3 ml MRS broth and was incubated under the same conditions for 18 h. NP-9 Tergitol (Sigma, US) Lot 47F0002 was diluted in MRS broth having a temperature of 37° C. (reduced viscosity) to a stock solution of 40%. […] 10 μl bacterial culture was added to each solution. The blank solution was mixed and added to MRS agar plates. The plates were grown in 5% CO2, 37° C. for 48 h for determining the cell density. The rest of the solutions were incubated without mixing in 5% CO2, 37° C. for 18 h. The solution containing 30% and 40% NP-9 were diluted in 37 ° C. MRS broth (reduced viscosity). All solutions were vigorously mixed; diluted in sterile 0.9% NaCl and added to MRS agar plates The plates were incubated in 5% CO2, 37° C. for 48 h for determining cfu/ml.
Inoculated amount of LB931 was 1.0×10^7 .cfu

[4] abbreviates: Lactiplantibacillus plantarum, LB931, E-test, read-out: MIC.

Like-named read-outs stand apart in the source and are kept apart here. Some results are limits rather than exact numbers.

On to `NCC[C@H](O)C(=O)N[C@@H]1C[C@H](N)[C@@H](O[C@H]2O[C@H](CN)[C@@H](O)[C@H](O)[C@H]2O)[C@H](O)[C@H]1O[C@H]1O[C@H](CO)[C@@H](O)[C@H](N)[C@H]1O` [Amikacin], for which, in the experiment on LB931 [1], the Indication result is listed as “S” and the Zone stood at 30 mm.
Broadly, the MIC is the smallest concentration in the dilution series that meets the test's criterion for growth inhibition. With `CC1(C)S[C@@H]2[C@H](NC(=O)[C@H](N)c3ccccc3)C(=O)N2[C@H]1C(=O)O` [Ampicillin], the MIC in experiment [2] (setting [4]) is 0.19 µg/mL.
Consider `C[C@H]1[C@H](NC(=O)/C(=N\OC(C)(C)C(=O)O)c2csc(N)n2)C(=O)N1S(=O)(=O)O` [Aztreonam], for which, in the experiment with LB931 [1], the Indication result is reported as “R” and the Zone turned out to be 0 mm.
`CC1(C)S[C@@H]2[C@H](NC(=O)Cc3ccccc3)C(=O)N2[C@H]1C(=O)O` [Benzylpenicillin]: the MIC in experiment [2] (setting [4]) was found to be 0.5 µg/mL.
With `CC1=C(C(=O)O)N2C(=O)[C@@H](NC(=O)[C@H](N)c3ccc(O)cc3)[C@H]2SC1` [Cefadroxil], in the experiment with LB931 [1], the Indication result was “S” and the Zone was determined as 24 mm.
Turning to `CC(=O)OCC1=C(C(=O)O)N2C(=O)[C@@H](NC(=O)Cc3cccs3)[C@H]2SC1` [Cefalotin], in the experiment on LB931 [1], the Indication entry was “S” and the Zone is reported as 22 mm.
The like results for `CO/N=C(\C(=O)N[C@@H]1C(=O)N2C(C(=O)[O-])=C(C[n+]3cccc4c3CCC4)CS[C@H]12)c1csc(N)n1` [Cefipirome] were, in that order, “S” and 47 mm.
As for `CO/N=C(\C(=O)N[C@@H]1C(=O)N2C(C(=O)O)=C(COC(C)=O)CS[C@H]12)c1csc(N)n1` [Cefotaxime], the MIC in experiment [2] (setting [4]) worked out at 0.094 µg/mL.
For `CC(C)(O/N=C(\C(=O)N[C@@H]1C(=O)N2C(C(=O)[O-])=C(C[n+]3ccccc3)CS[C@H]12)c1csc(N)n1)C(=O)O` [Ceftazidime], in the experiment on LB931 [1], the Indication result is “S” and the Zone came to 35 mm.
Turning to `CO/N=C(\C(=O)N[C@@H]1C(=O)N2C(C(=O)O)=C(COC(N)=O)CS[C@H]12)c1ccco1` [Cefuroxime], the MIC in experiment [2] (setting [4]) was found to be 0.38 µg/mL.
Turning to `CCC[C@@H]1C[C@@H](C(=O)N[C@@H]([C@H]2O[C@H](SC)[C@H](O)[C@@H](O)[C@H]2O)[C@H](C)Cl)N(C)C1` [Clindamycin], in the experiment on LB931 [1], the Indication entry is listed as “S” and the Zone was 35 mm.
Take `CC[C@H]1OC(=O)[C@H](C)[C@@H](O[C@H]2C[C@@](C)(OC)[C@@H](O)[C@H](C)O2)[C@H](C)[C@@H](O[C@@H]2O[C@H](C)C[C@H](N(C)C)[C@H]2O)[C@](C)(O)C[C@@H](C)C(=O)[C@H](C)[C@@H](O)[C@]1(C)O` [Erythromycin]: the MIC in experiment [2] (setting [4]) was found to be 0.25 µg/mL.
Still for that read-out and setting: as for `C[C@@H](O)[C@H]1C(=O)N2C(C(=O)O)=C(SCCN=CN)C[C@H]12` [Imipenem], the figure is 0.016 µg/mL.
As to `CC1(C)S[C@@H]2[C@H](/N=C/N3CCCCCC3)C(=O)N2[C@H]1C(=O)O` [Mecillinam], in the experiment with LB931 [1], the Indication result is given as “R” and the Zone is given as 0 mm.
Take `Cc1ncc([N+](=O)[O-])n1CCO` [Metronidazole]: the minimal inhibitory concentration (MIC) in experiment [2] (setting [4]) is over 32 µg/mL.
With `CCn1cc(C(=O)O)c(=O)c2ccc(C)nc21` [Nalidixin acid], in the experiment with LB931 [1], the “Sensitivity of LB931 in words” value is on record as “resistant”, the Indication result is “R” and the Zone is 0 mm.
Consider `CCN[C@@H]1C[C@H](N)[C@@H](O[C@H]2OC(CN)=CC[C@H]2N)[C@H](O)[C@H]1O[C@H]1OC[C@](C)(O)[C@H](NC)[C@H]1O` [Netilmycin], for which, in the experiment with LB931 [1], the Indication entry is “R” and the Zone is 0 mm.
As for `O=C1CN(/N=C/c2ccc([N+](=O)[O-])o2)C(=O)N1` [Nitrofuantin], in the experiment on LB931 [1], the Indication entry is “S” and the Zone is recorded as 36 mm.
`CCn1cc(C(=O)O)c(=O)c2cc(F)c(N3CCNCC3)cc21` [Norfloxacin]: in the experiment on LB931 [1], the “Sensitivity of LB931 in words” value was “resistant”, the Indication result was “R” and the Zone was 0 mm.
On to `Cc1onc(-c2ccccc2)c1C(=O)N[C@@H]1C(=O)N2[C@@H]1SC(C)(C)[C@@H]2C(=O)O` [Oxacillin], for which, in the experiment with LB931 [1], the Indication result is listed as “R” and the Zone turned out to be 0 mm.
Take `CN(C)[C@@H]1C(=O)C(C(N)=O)=C(O)[C@@]2(O)C(=O)C3=C(O)c4c(O)cccc4[C@@](C)(O)[C@H]3C[C@@H]12` [Tetracyclin]: in experiment [2] (E-test), the MIC stood at 2 µg/mL.
With `NC[C@H]1O[C@H](O[C@H]2[C@H](O)[C@@H](O[C@H]3O[C@H](CO)[C@@H](O)[C@H](N)[C@H]3O)[C@H](N)C[C@@H]2N)[C@H](N)C[C@@H]1O` [Tobramycin], in the experiment on LB931 [1], the Indication entry is on record as “S” and the Zone stood at 32 mm.
For the compound `COc1cc(Cc2cnc(N)nc2N)cc(OC)c1OC` [Trimetoprim], the MIC in experiment [2] (E-test) came to 0.016 µg/mL.
Take `CN[C@H](CC(C)C)C(=O)N[C@H]1C(=O)N[C@@H](CC(N)=O)C(=O)N[C@H]2C(=O)N[C@H]3C(=O)N[C@H](C(=O)N[C@H](C(=O)O)c4cc(O)cc(O)c4-c4cc3ccc4O)[C@H](O)c3ccc(c(Cl)c3)Oc3cc2cc(c3O[C@@H]2O[C@H](CO)[C@@H](O)[C@H](O)[C@H]2O[C@H]2C[C@](C)(N)[C@H](O)[C@H](C)O2)Oc2ccc(cc2Cl)[C@H]1O` [Vancomycin]: the “Sensitivity of LB931 in words” value in experiment [2] is “resistant”. The MIC in experiment [2] (Lactiplantibacillus plantarum, LB931) was over 256 µg/mL.
As for Gentamycin, in experiment [2] (E-test), the MIC worked out at 0.25 µg/mL.
As to Mecillinam/Ampicillin, in the experiment on LB931 [1], the Indication entry is “S” and the Zone is reported as 41 mm.
For Piperacin/Tazobactam, the minimum inhibitory concentration (MIC) in experiment [2] (E-test) was 2 µg/mL.
As for Tergitol NP-9, the “Cfu/ml LB931” value was 2.5 × 10^9 Cfu/ml in the experiment on LB931 [3] (1% Tergitol NP-9 in MRS broth); 2.5 × 10^9 Cfu/ml in the experiment with LB931 [3] (5% Tergitol NP-9 in MRS broth); 1.6 × 10^9 Cfu/ml with LB931 [3] (10% Tergitol NP-9 in MRS broth); 1.4 × 10^9 Cfu/ml in the experiment with LB931 [3] (20% Tergitol NP-9 in MRS broth); 1.0 × 10^9 Cfu/ml with LB931 [3] (30% Tergitol NP-9 in MRS broth); 6.9 × 10^7 Cfu/ml in the experiment on LB931 [3] (40% Tergitol NP-9 in MRS broth). In addition, the “Survival of LB931 in tergitol NP-9 in words” value with LB931 [3] (up to 40% tergitol NP-9) is “survive well”.
As for Tri/sulfamethoazole, in the experiment with LB931 [1], the Indication entry was “S” and the Zone came out at 43 mm.
